Common to all, as to test: In vitro cytotoxicity of Ara-N3 probe (Annexin V/IP, MTS)
Data set [1] deals with MDA MB175 (tumoral cell lines). Format: cell-based. The method, then:
(§1) The cell lines (as detailed below in the table) were provided by Inserm/Aquiderm transfer cell. Cell culture of cell lines and cell cytoxicity tests were also carried out by Aquiderm transfer cell, in the laboratory of INSERM U1035.
(§2) All the cells were seeded in culture plates, either in 96 wells at the density of 1*10^4 cells/well for the MTS proliferation test, either in 24 wells at the density of 5*10^4 cells/well for the Annexin V test/IP test. Then the cells were incubated at 37° C. and 5% CO2 for 24 hours. After 24 hours, the culture medium was changed in all the wells and the cells adhered to the bottom of the wells were rinsed twice in PBS (Eurobio) or centrifuged and washed twice in PBS for the cells in suspension, before being exposed to the Ara-N3 probe at different concentrations: 1, 10, 50 and 100 mM. The cells were incubated at 37° C. and 5% CO2 for 48 hours.
(§3) This test requires the use of an Annexin V-APC kit (Biolegend) for the detection of apoptosis/necrosis. This test uses the ability of Annexin V to bind to membrane phosphatidylserines (PS) and the intercalating properties of propidium iodide (PI) on DNA.
(§4) Briefly, after incubation of the cells with the Ara-N3 probe at different concentrations and at different times (24 h and 48 h), the cells were recovered, trypsinized (for adherent cells) and washed in PBS. After counting in trypan blue on the Malassez cell, the cells were incubated in a labeling buffer (100 μL) in the presence of Annexin V-APC (5 μL) and of IP (10 μL) for 15 minutes at room temperature and in the dark. They were then directly analyzed by cytometry after adding 100 μL of labeling buffer.
(§5) The non-toxic concentrations of Ara-N3 with respect to the tested cells are gathered in the following Table 5.

The test system of data set [2] is MDA MB231 (tumoral cell lines). The class given is cell-based. On the procedure: as §1, §2, §3, §4, §5
The subject of data set [3] is MDA MB453 (tumoral cell lines). Format: cell-based. On the procedure: as §1, §2, §3, §4, §5
For data set [4], the system named is HME1 (immortalized cell lines). Format: cell-based. On the procedure: as §1, §2, §3, §4, §5
Data set [5] deals with A431 (tumoral cell lines). Format: cell-based, human. Particulars: tested 1, 10, 50 and 100 mM, 24 h and 48 h. On the procedure: as §1
(§6) The cells were cultivated in an oven at 37° C., 5% CO2 and 95% humidity, in different culture media: • either in RPMI 1640 medium supplemented with 10% of decomplemented FCS (Fetal calf serum) and antibiotics penicillin (100 IU/ml) and […] (100 μg/ml), for the pair Monocytes/THP1. • either in DMEM medium supplemented with 10% of decomplemented FCS and antibiotics penicillin (100 IU/ml) and […] (100 μg/ml) for the Hacat/A431 couple.
as §2, §3
(§7) Briefly, after incubation of the cells with the Ara-N3 probe at different concentrations and at different times (24 h and 48 h), the cells were recovered, trypsinized (for adherent cells) and washed in PBS. After counting in trypan blue on the Malassez cell, the cells were incubated in a labeling buffer (100 μL) in the presence of Annexin V-APC (5 μL) and of IP (10 μL) for 15 minutes at room temperature and in the dark. They were then directly analyzed by cytometry after adding 100 μL of labeling buffer. […]

In data set [6] the test system is THP1 (tumoral cell lines). The class given is cell-based, human. To be noted: tested 1, 10, 50 and 100 mM, 24 h and 48 h. On the procedure:
as §1, §6, §2, §3, §7

The test system of data set [7] is HACAT (immortalized cell lines). Format: cell-based, human. To be noted: tested 1, 10, 50 and 100 mM, 24 h and 48 h. On the procedure:
as §1, §6, §2, §3, §7

Data set [8] deals with Macrophage (primary cells). Format: cell-based, human. Particulars: tested 1, 10, 50 and 100 mM, 24 h and 48 h. On the procedure: as §1
Human mononucleated cells were isolated from peripheral blood from 2 different healthy donors by convention established with the Etablissement Frangais du Sang d'Aquitaine. The technique used was Ficoll gradient isolation. Briefly, the blood diluted in a phosphate buffered saline solution (PBS) was deposited on a sucrose solution (Ficoll, Eurobio) and centrifuged in order to separate the different blood elements. Between Ficoll and plasma was established a cell ring composed of monocytes and lymphocytes. This was recovered and washed in PBS for counting on the Malassez cell.
Human CD14+monocytes were isolated from […] by magnetic beads coupled to an anti-CD14 antibody (Miltenyi Biotech). The mononuclear cells were incubated for 15 minutes, in PBS buffer, in the presence of a determined concentration of beads depending on the number of cells. […]
Briefly, after incubation of the cells with the Ara-N3 probe at different concentrations and at different times (24 h and 48 h), the cells were recovered, trypsinized (for adherent cells) and washed in PBS. […] They were then directly analyzed by cytometry after adding 100 μL of labeling buffer. […]

This note sets out measurements from patent US12517131B2, “Methods for labeling eukaryotic cells from a multicellular organism as well as for treating and/or diagnosing a cancer using modified monosaccharide compounds” (DIAMIDEX, priority 2019, dated 2026).

Bounds are passed on as bounds.

Turning to `[N-]=[N+]=NC[C@H]1OC(O)[C@@H](O)[C@@H]1O` (stereo partly drawn) [Ara-N3, 5-azido-5-deoxy-D-arabinofuranose], the “Non-toxic concentration of Ara-N3” value in data set [1] is above 1 mM; in data set [2], above 1 mM; in data set [3], above 1 mM; in data set [4], above 1 mM; in data set [5], above 10 mM; in data set [6] it was above 10 mM. For the same molecule, the “Non-toxic concentration of Ara-N3” value in data set [7] and in data set [8] was above 10 mM each time.
